Source: publication PMC5808360, “Neutral Porphyrin Derivative Exerts Anticancer Activity by Targeting Cellular Topoisomerase I (Top1) and Promotes Apoptotic Cell Death without Stabilizing Top1-DNA Cleavage Complexes” (Journal of Medicinal Chemistry, 2017)

How the values were obtained:
[1] = tested on: relaxed pBS (SK+) plasmid DNA; experiment: Topoisomerase I unwinding assay (DNA intercalation); settings: m-AMSA and etoposide 50 and 300 μM; compound 8 50, 100, 300 μM
Experimental: Therefore, compound 8 interacts in reversible manner with Top1 to inhibit the plasmid relaxation activity (Figure 1).
The competence of the drug to intercalate into plasmid DNA was determined by Top1 unwinding assay.[36],[44] Assays were performed with 50 fmol of pBluscript (SK+) DNA in the presence or absence of compound 8, m-AMSA, and etoposide at indicated concentrations. Excess of DNA topoisomerase I was reacted with supercoiled plasmid DNA to generate relaxed DNA for the unwinding assays. The relaxed DNA was purified by proteolytic digestion with proteinase K at 37 °C, followed by phenol/chloroform extraction and ethanol precipitation. The unwinding assays were carried out at 37 °C for 15 min with independent compounds and were analyzed by 1% agarose gel as described above.

[2] = target: T1, recombinant Top1 (Homo sapiens, UniProt P11387); experiment: Plasmid DNA relaxation assay with recombinant human Top1; format: biochemical; settings: 1 μM compound, preincubated with Top1 before addition of DNA
T1 construct: made in house; host or cells: Sf-9 insect cells (recombinant baculovirus, gift of Prof. James J. Champoux)
T1 sequence (P11387 1-765): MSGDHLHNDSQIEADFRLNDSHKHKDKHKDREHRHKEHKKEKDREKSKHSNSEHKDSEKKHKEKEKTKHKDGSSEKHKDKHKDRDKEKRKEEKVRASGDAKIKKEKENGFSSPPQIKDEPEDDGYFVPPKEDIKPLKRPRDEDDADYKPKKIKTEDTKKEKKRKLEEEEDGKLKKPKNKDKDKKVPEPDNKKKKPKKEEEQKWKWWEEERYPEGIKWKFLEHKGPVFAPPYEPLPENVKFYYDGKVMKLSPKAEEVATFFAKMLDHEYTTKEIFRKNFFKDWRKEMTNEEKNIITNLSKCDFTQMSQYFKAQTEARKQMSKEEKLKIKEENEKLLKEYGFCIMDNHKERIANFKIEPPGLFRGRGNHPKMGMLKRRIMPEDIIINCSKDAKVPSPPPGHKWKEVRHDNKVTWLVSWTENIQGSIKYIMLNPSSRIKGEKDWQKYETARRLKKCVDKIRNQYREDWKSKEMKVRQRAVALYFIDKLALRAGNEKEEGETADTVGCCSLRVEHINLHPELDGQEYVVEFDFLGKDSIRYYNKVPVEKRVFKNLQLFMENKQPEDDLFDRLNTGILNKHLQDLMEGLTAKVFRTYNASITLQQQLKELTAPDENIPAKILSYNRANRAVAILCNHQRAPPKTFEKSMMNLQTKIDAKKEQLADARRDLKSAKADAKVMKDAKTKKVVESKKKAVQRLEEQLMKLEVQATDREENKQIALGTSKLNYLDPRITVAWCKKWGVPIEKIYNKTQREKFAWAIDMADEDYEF
From the text: To test the inhibitory effect of the synthetic library of neutral porphyrin compounds (Scheme 1) on human Top1 activity, we performed the DNA relaxation assays in a standard assay mixture containing the plasmid DNA and recombinant Top1.[6],[13],[36],[37]Table 1 enlists the compounds with relative efficiencies of Top1 inhibition as a measure of their effective drug concentrations (EC50 value), indicating the highest activity for the selected neutral porphyrin derivative compound 8.
To examine the mechanism of Top1 inhibition with compound 8, we used variable incubation conditions in the relaxation assays (Figure 1A). […] Next, to test the impact of compound 8 interaction with Top1 in the relaxation assays, we preincubated Top1 with compound 8 at indicated concentrations (Figure 1A, lanes 5–8) separately before the addition of DNA.[6],[13],[36],[38]
The recombinant human Top1 was purified from Sf-9 insect cells, infected with the recombinant baculovirus (a kind gift from Prof. James. J. Champoux) as described previously.[6],[13]
The type 1 DNA topoisomerase is assayed by decreased mobility of the relaxed isomers of supercoiled pBS (SK^+) DNA in 1% agarose gel. […]

[3] = tested on: PARP1 cleavage in MCF7 cells; experiment: Western blot of PARP1 cleavage in treated MCF7 cells; format: cell-based, human; settings: 10 μM, 12 h
Experimental: Preparation of whole cell extracts from MCF7 cells and immunoblotting were carried out as described.[6],[40],[41] Immunoreactivity was detected using ECL chemiluminescence reaction (Amersham) under ChemiDoc MP system (Bio-Rad, USA).

[4] = target: T2, EGFP-human Top1 in MCF7 cells (Homo sapiens, UniProt P11387); experiment: FRAP of EGFP-Top1 in live MCF7 cells; format: cell-based; settings: CPT 5 μM 10 min, then compound 20 μM 10 min
T2 construct: expressed in transfected cells; host or cells: MCF7 cells, transient transfection (Lipofectamine 2000)
T2 sequence (P11387 1-765): T1 sequence (P11387 1-765)
Experimental: To obtain direct evidence for compound 8 mediated inhibition of Top1cc formation in live human carcinoma cells, we used MCF7 cells and transiently expressed EGFP-Top1. Live cells expressing ectopic Top1 were analyzed under laser confocal microscopy equipped with fluorescence recovery after photobleaching (FRAP) technology.[40]−[42]
Photobleaching experiments were performed as described formerly[40]−[42] using Andor Spining disk inverted confocal laser-scanning microscope equipped with a 60×/1.42 NA oil-immersion objective (Olympus) and with a CO2-controlled on-stage heated environmental chamber set to 37 °C. FRAP analyses were carried out with living MCF7 cells ectopically expressing EGFP-human Top1 grown on chamber cover glass (Genetix, India) and drug treated as indicated. For FRAP analysis, a subnuclear spot was bleached for 30 ms by solid-state laser line (488 nm for EGFP) adapted to the fluorescent protein of interest and FRAP curves were generated individually normalized to the prebleach signal as described previously.[42]

CN(C)c1ccc(-c2c3nc(c(-c4ccc(N(C)C)cc4)c4ccc([nH]4)c(-c4ccc(C(=O)O)cc4)c4nc(c(-c5ccc(C(=O)O)cc5)c5ccc2[nH]5)C=C4)C=C3)cc1 [Compound 8, 5,10-Bis(4-carboxyphenyl)-15,20-bis(4-dimethylaminophenyl)porphyrin]
Negative supercoiling of relaxed plasmid DNA (intercalation) [1]: failed to induce negative supercoiling of the relaxed plasmid DNA | inhibition at 1 µM [2]: 85 to 95% | PARP cleavage [3]: promotes PARP cleavage | Top1 mobility restored in cells pretreated with CPT (FRAP) [4]: 12–15%
